# Test results as given in article PMC12257073 (Cancer Research Communications, 2025).
# “Also recorded” adds a separate entry of the source.
# Test: Adverse events (treatment-related and all-cause) and dose-limiting toxicities, NCI CTCAE version 4.0
# Settings: for Patients with treatment-related grade 3+ AEs: seven patients
# [1] = Group 2, all-cause adverse events, Missing Categories
# [2] = Group 2, all-cause adverse events, Skin and subcutaneous tissue disorders
# [3] = Group 2, all-cause adverse events, Vascular disorders
# [4] = group 1, 37 mg TP-0903 + decitabine
# [5] = group 1, TP-0903 37 mg/day + decitabine, n = 15
# [6] = group 2, 25 mg TP-0903 + decitabine
# [7] = group 2, TP-0903 25 mg/day + decitabine, n = 12
# [8] = overall, TP-0903 + decitabine, n = 27
# Method: The phase 1b portion of the study used a standard 3 + 3 dose-escalation design with a starting dose level 1 (DL1) of 37 mg oral daily TP-0903 (Supplementary Table S2) based on experience with 50 mg oral daily as a single agent in patients with solid tumors ([25]). Dose-limiting toxicities (DLT) were evaluated to establish the dose brought forward for an expansion cohort (phase 2). Seven patients were enrolled in the phase 1b study, which was completed in January 2021 with the decision to move forward with an expansion cohort of 37 mg oral daily. Across the phase 1b and phase 2 studies, 15 patients were enrolled and started on 37 mg TP-0903 oral daily on days 1 to 21 (group 1). […] One additional patient was enrolled at this time but was inadvertently started on 25 mg TP-0903 oral daily on days 1 to 21. […] In May 2021, an amendment was approved to allow enrollment of a new group 2 at 25mg oral daily on days 1 to 21 of TP-0903 (DL-1) in stage 2 of the phase 2 study.
# Clinical response was assessed according to the modified 2017 European LeukemiaNet AML criteria ([26]). The primary endpoint was achievement of CR within six cycles of therapy. Secondary endpoints included toxicity, duration of response, OS, and the proportion of eligible patients who effectively transitioned to allogeneic stem cell transplantation. Exploratory endpoints included pharmacokinetics (PK), correlative genetic, and biochemical data; correlations between morphologic remission, spectral flow cytometry, and mutational remission; and duration of remission or survival. […] Adverse events (AE) were graded according to the NCI Common Terminology Criteria for Adverse Events version 4.0 ([27]).
compound,measurement,setting,value
"CN1CCN(Cc2ccc(Nc3ncc(Cl)c(Nc4ccccc4S(=O)(=O)N(C)C)n3)cc2)CC1.O=C(O)C(O)C(O)C(=O)O.O=C(O)C(O)C(O)C(=O)O [TP-0903, 2-(5-chloro-2-(4-((4-methylpiperazin-1-yl)methyl)phenylamino)pyrimidin-4-yl)amino-N,N-dimethylbenzene-1-sulfonamide di-tartrate salt]","Hypotension (intermittent), All",[1],1 (8.3)
same,"Hypotension (intermittent), Grade 1 2",[1],1 (8.3)
same,"Hypotension (intermittent), Grade 3+",[1],0 (0)
same,"INR - Increased, All",[1],0 (0)
same,"INR - Increased, Grade 1 2",[1],0 (0)
same,"INR - Increased, Grade 3+",[1],0 (0)
same,"Inflammation (bilateral knee), All",[1],1 (8.3)
same,"Inflammation (bilateral knee), Grade 1 2",[1],1 (8.3)
same,"Inflammation (bilateral knee), Grade 3+",[1],0 (0)
same,"Itching (intermittent), All",[1],1 (8.3)
same,"Itching (intermittent), Grade 1 2",[1],1 (8.3)
same,"Itching (intermittent), Grade 3+",[1],0 (0)
same,"Microvascular ischemic disease, All",[1],1 (8.3)
same,"Microvascular ischemic disease, Grade 1 2",[1],1 (8.3)
same,"Microvascular ischemic disease, Grade 3+",[1],0 (0)
same,"Pain (leg), All",[1],1 (8.3)
same,"Pain (leg), Grade 1 2",[1],1 (8.3)
same,"Pain (leg), Grade 3+",[1],0 (0)
same,"Retinal Detachment, All",[1],0 (0)
same,"Retinal Detachment, Grade 1 2",[1],0 (0)
same,"Retinal Detachment, Grade 3+",[1],0 (0)
same,"Steroid-induced hyperglycemia, All",[1],1 (8.3)
same,"Steroid-induced hyperglycemia, Grade 1 2",[1],1 (8.3)
same,"Steroid-induced hyperglycemia, Grade 3+",[1],0 (0)
same,"Symptomatic anemia, All",[1],1 (8.3)
same,"Symptomatic anemia, Grade 1 2",[1],0 (0)
same,"Symptomatic anemia, Grade 3+",[1],1 (8.3)
same,"lung fullness, All",[1],0 (0)
same,"lung fullness, Grade 1 2",[1],0 (0)
same,"lung fullness, Grade 3+",[1],0 (0)
same,"neuropathy (BLE), All",[1],1 (8.3)
same,"neuropathy (BLE), Grade 1 2",[1],1 (8.3)
same,"neuropathy (BLE), Grade 3+",[1],0 (0)
same,"pericarditis (intermittent), All",[1],1 (8.3)
same,"pericarditis (intermittent), Grade 1 2",[1],1 (8.3)
same,"pericarditis (intermittent), Grade 3+",[1],0 (0)
same,"Dry skin, All",[2],0 (0)
same,"Dry skin, Grade 1 2",[2],0 (0)
same,"Dry skin, Grade 3+",[2],0 (0)
same,"Ecchymosis, All",[2],4 (33.3)
same,"Ecchymosis, Grade 1 2",[2],4 (33.3)
same,"Ecchymosis, Grade 3+",[2],0 (0)
same,"Erythema nodosum, All",[2],1 (8.3)
same,"Erythema nodosum, Grade 1 2",[2],1 (8.3)
same,"Erythema nodosum, Grade 3+",[2],0 (0)
same,"Erythema, All",[2],0 (0)
same,"Erythema, Grade 1 2",[2],0 (0)
same,"Erythema, Grade 3+",[2],0 (0)
same,"Hyperhidrosis, All",[2],1 (8.3)
same,"Hyperhidrosis, Grade 1 2",[2],1 (8.3)
same,"Hyperhidrosis, Grade 3+",[2],0 (0)
same,"Nail discolouration, All",[2],0 (0)
same,"Nail discolouration, Grade 1 2",[2],0 (0)
same,"Nail discolouration, Grade 3+",[2],0 (0)
same,"Petechiae, All",[2],3 (25)
same,"Petechiae, Grade 1 2",[2],3 (25)
same,"Petechiae, Grade 3+",[2],0 (0)
same,"Photosensitivity reaction, All",[2],0 (0)
same,"Photosensitivity reaction, Grade 1 2",[2],0 (0)
same,"Photosensitivity reaction, Grade 3+",[2],0 (0)
same,"Pruritus, All",[2],0 (0)
same,"Pruritus, Grade 1 2",[2],0 (0)
same,"Pruritus, Grade 3+",[2],0 (0)
same,"Rash papular, All",[2],1 (8.3)
same,"Rash papular, Grade 1 2",[2],1 (8.3)
same,"Rash papular, Grade 3+",[2],0 (0)
same,"Rash, All",[2],1 (8.3)
same,"Rash, Grade 1 2",[2],1 (8.3)
same,"Rash, Grade 3+",[2],0 (0)
same,"Scab, All",[2],1 (8.3)
same,"Scab, Grade 1 2",[2],1 (8.3)
same,"Scab, Grade 3+",[2],0 (0)
same,"Skin disorder, All",[2],0 (0)
same,"Skin disorder, Grade 1 2",[2],0 (0)
same,"Skin disorder, Grade 3+",[2],0 (0)
same,"Skin lesion, All",[2],1 (8.3)
same,"Skin lesion, Grade 1 2",[2],1 (8.3)
same,"Skin lesion, Grade 3+",[2],0 (0)
same,"Swelling face, All",[2],1 (8.3)
same,"Swelling face, Grade 1 2",[2],1 (8.3)
same,"Swelling face, Grade 3+",[2],0 (0)
same,"Hypertension, All",[3],1 (8.3)
same,"Hypertension, Grade 1 2",[3],0 (0)
same,"Hypertension, Grade 3+",[3],1 (8.3)
same,"Hypotension, All",[3],1 (8.3)
same,"Hypotension, Grade 1 2",[3],0 (0)
same,"Hypotension, Grade 3+",[3],1 (8.3)
same,"Lymphoedema, All",[3],1 (8.3)
same,"Lymphoedema, Grade 1 2",[3],1 (8.3)
same,"Lymphoedema, Grade 3+",[3],0 (0)
same,"Peripheral venous disease, All",[3],1 (8.3)
same,"Peripheral venous disease, Grade 1 2",[3],1 (8.3)
same,"Peripheral venous disease, Grade 3+",[3],0 (0)
same,Serious AEs related to TP-0903,"all treated patients, TP-0903 + decitabine",no patients had serious AEs related to TP-0903; also recorded: no serious AEs attributable to TP-0903
same,"Diarrhea, grade 1 to 2 treatment-related AE (any grade)",[4],33%
same,"Fatigue, grade 3+ treatment-related AE",[4],6%
same,"Nausea, grade 1 to 2 treatment-related AE (any grade)",[4],47%
same,"Neutropenia, grade 3+ treatment-related AE",[4],33%
same,"Stomatitis, grade 3+ treatment-related AE",[4],6%
same,"Thrombocytopenia, grade 3+ treatment-related AE",[4],27%
same,Patients with treatment-related grade 3+ AEs,[4],47%
same,"Anemia, treatment-related AE grade ≥3",[5],2 (13.3) no. (%)
same,"Decreased appetite, treatment-related AE grade ≥3",[5],0 (0) no. (%)
same,"Febrile neutropenia, treatment-related AE grade ≥3",[5],0 (0) no. (%)
same,"Leukopenia, treatment-related AE grade ≥3",[5],3 (20) no. (%)
same,"Lymphocyte count decreased, treatment-related AE grade ≥3",[5],0 (0) no. (%)
same,"Neutropenia, treatment-related AE grade ≥3",[5],5 (33.3) no. (%)
same,"Pneumonia, treatment-related AE grade ≥3",[5],0 (0) no. (%)
same,"Thrombocytopenia, treatment-related AE grade ≥3",[5],4 (26.7) no. (%)
same,"Decreased appetite, grade 1 to 2 treatment-related AE (any grade)",[6],25%
same,"Decreased appetite, grade 3+ treatment-related AE",[6],8%
same,"Diarrhea, grade 1 to 2 treatment-related AE (any grade)",[6],25%
same,"Febrile neutropenia, grade 3+ treatment-related AE",[6],33%
same,"Leukopenia, grade 3+ treatment-related AE",[6],33%
same,"Lymphocyte count decrease, grade 3+ treatment-related AE",[6],42%
same,"Nausea, grade 1 to 2 treatment-related AE (any grade)",[6],42%
same,"Neutropenia, grade 3+ treatment-related AE",[6],50%
same,"Pneumonia, grade 3+ treatment-related AE",[6],8%
same,"Thrombocytopenia, grade 3+ treatment-related AE",[6],25%
same,Patients with treatment-related grade 3+ AEs,[6],58%
same,"Anemia, treatment-related AE grade ≥3",[7],1 (8.3) no. (%)
same,"Decreased appetite, treatment-related AE grade ≥3",[7],1 (8.3) no. (%)
same,"Fatigue, treatment-related AE grade ≥3",[7],0 (0) no. (%)
same,"Febrile neutropenia, treatment-related AE grade ≥3",[7],4 (33.3) no. (%)
same,"Leukopenia, treatment-related AE grade ≥3",[7],4 (33.3) no. (%)
same,"Lymphocyte count decreased, treatment-related AE grade ≥3",[7],5 (41.7) no. (%)
same,"Neutropenia, treatment-related AE grade ≥3",[7],6 (50) no. (%)
same,"Pneumonia, treatment-related AE grade ≥3",[7],1 (8.3) no. (%)
same,"Stomatitis, treatment-related AE grade ≥3",[7],0 (0) no. (%)
same,"Thrombocytopenia, treatment-related AE grade ≥3",[7],3 (25) no. (%)
same,"Anemia, treatment-related AE grade ≥3",[8],3 (11.1) no. (%)
same,"Decreased appetite, treatment-related AE grade ≥3",[8],1 (3.7) no. (%)
same,"Fatigue, treatment-related AE grade ≥3",[8],1 (3.7) no. (%)
same,"Febrile neutropenia, treatment-related AE grade ≥3",[8],4 (14.8) no. (%)
same,"Leukopenia, treatment-related AE grade ≥3",[8],7 (25.9) no. (%)
same,"Lymphocyte count decreased, treatment-related AE grade ≥3",[8],5 (18.5) no. (%)
same,"Neutropenia, treatment-related AE grade ≥3",[8],11 (40.7) no. (%)
same,"Pneumonia, treatment-related AE grade ≥3",[8],1 (3.7) no. (%)
same,"Stomatitis, treatment-related AE grade ≥3",[8],1 (3.7) no. (%)
same,"Thrombocytopenia, treatment-related AE grade ≥3",[8],7 (25.9) no. (%)
same,Dose-limiting toxicities (DLT),"phase 1b, DL1 37 mg TP-0903 + decitabine, six evaluable patients",No DLTs were observed
